3 molecules from patent US11066379B2 (THE TEXAS A&M UNIVERSITY SYSTEM, priority 2018, dated 2021) can be followed below.

The term IC50 denotes the concentration that gives 50% inhibition. High values mean weaker potency in that assay, low ones greater potency in that assay.

One series has as its system SHSY5Y cells. As to the kind of experiment: Neuroprotective effects summarised over all five assays (viability, TMRM, ROS, GSH, mPTP). It counts as cell-based, human. To be noted: 0.001, 0.01 or 0.1 μM; H2O2 challenge. How it is done:
As described previously, neuroprotective agents can mediate their effects through inhibition of CypD, an isoform of CypA. […] All assays were performed at the indicated concentrations (0.001, 0.01, or 0.1 μM) based on initial cytotoxicity determined with SHSY5Y cells (Table 1).

A further series deals with SH-SY5Y cells. As to the kind of experiment: Intracellular ROS levels (carboxy-H2DCFDA) after H2O2. It counts as cell-based, human. Particulars: 150 μM H2O2 co-treatment 6 h. How it is done:
Intracellular levels of reactive oxygen species (ROS) were determined with carboxy-H2DCFDA (5-(and-6)-carboxy-2′,7′-dichlorodihydrofluorescein diacetate). This dye diffuses through the cellular membrane and is converted by cellular esterases to carboxy-H2DCFH (non-fluorescent). When carboxy-H2DCFH is oxidized by ROS, it becomes fluorescent (Halliwell, B. and Whiteman, M. Br. J. Pharmacol., 2004, 142, 231-255). Cells were seeded at a density of 2.5×10^5 cells/mL in 96-well plates and allowed to attach for 24 h. Following treatment with compounds at various concentrations (1 μM→1 nM) and 150 μM H2O2 for 6 h, SH-SY5Y cells were washed twice with serum-free culture medium. Then, carboxy-H2DCFDA 20 μM dissolved in serum-free culture medium was added to each well and the cells were incubated for 1 h at 37° C. After this incubation, the medium with the fluorescent dye was replaced with PBS and the plate was incubated for 30 min at 37° C. Fluorescence was read at 527 nm, with an excitation wavelength of 495 nm. All experiments were performed four times.

A further series has as its target T1, CypA (Homo sapiens, UniProt P62937).
T1 construct: Active human CypA full-length protein was from Abcam; purchased Abcam
As to the kind of experiment: CypA PPIase activity inhibition. Particulars: PPIase IC50 CypA vs CypD. The series is classed as biochemical.

For series [1], the system named is mitochondrial membrane permeability transition pore (mPTP) in SH-SY5Y cells. As to the kind of experiment: Mitochondrial membrane permeability transition pore (mPTP) measurement, TBHP-induced opening. It counts as cell-based, human. Particulars: 1 mM TBHP. How it is done:
The blockage of mPTP by compounds was determined with the MitoProbe Transition Assay Kit following manufacturer's instructions. Briefly, SH-SY5Y human neuroblastoma cells were re-suspended in pre-warmed PBS/Ca^+2 buffer at a final concentration of 1×10^6 cells/mL. Cells were loaded with 0.01 μM Calcein-AM and incubated at 37° C. for 15 min. Then, 0.4 mM CoCl2 and compounds at selected concentrations were added and incubated for 15 min at 37° C. […] After this incubation, cells were centrifuged and re-suspended in 100 μL of PBS. Just before analyzing, 1 mM tert-butyl hydroperoxide (TBHP) was added to the samples to induce pore opening. Fluorescence intensity was measured at 488 nm excitation and 517 nm emission wavelengths by flow cytometry using the ImageStreamMKII (Amnis Corporation, Merck-Millipore) and […] software. The fluorescence of 10,000 events was analyzed with IDEASR Application vs 6.0 (Amnis Corporation, Merck-Millipore). Experiments were carried out four times.

Another series has as its target CypD (Homo sapiens, UniProt P30405). As to the kind of experiment: CypD enzyme inhibition assay (PPIase activity). The series is classed as biochemical. Particulars: for IC50: CypD 1 nM; for selectivity for CypD over CypA: PPIase IC50 CypA vs CypD. How it is done: The inhibition of the peptidyl-prolyl cis-trans isomerase (PPIase) activity of compounds was determined by following the rate of hydrolysis of N-succinyl-Ala-Ala-Pro-Phe-pnitroanilide by chymotrypsin. CsA was used as positive control. The assay was performed as previously described (Yan, W., Qing, J., Mei, H., Nong, J., Huang, J., Zhu, J., Jiang, H., Liu, L., Zhang, L. and Li, J. Bioorg. Med. Chem. Lett., 2015, 25, 5682-5686) with small modifications. The assay buffer (20 mM Tris-HCl, 50 mM NaCl, pH 7.8), CypD (1 nM) and the compounds at concentrations ranging from 0.001 to 10 μM were pre-cooled at 4° C. for 1 h. After that time, chymotrypsin at 0.4 mg/mL in 1 mM HCl was added to each well. The reaction was initiated by the addition of the peptide (0.1 mg/mL in 500 mM LiCl in THF). The absorbance at 380 nm was monitored every 30 sec for 5 min with a spectrophotometer plate reader. The blank rates of hydrolysis (in absence of CypD) were subtracted from the rates in the presence of the enzyme. The half-maximal inhibitory concentration (IC50) was calculated by fitting the data with a log(inhibitor) vs. response model of GraphPad Prism 5.0 software. All experiments were performed four times.

In the next series the test system is human T lymphocytes. As to the kind of experiment: Viability of human T lymphocytes (MTT assay, 48 h). Particulars: in words. It counts as cell-based. From the text:
(§1) The MTT (3-[4,5-dimethylthiazol-2-yl]-2,5-diphenyltetrazoliumbromide) assay was used to determine the cytotoxicity of gracilin derivatives in T lymphocytes (Burton, J. D. Methods Mol. Med., 2005, 110, 69-78) and SH-SY5Y cells and the protective effect of these compounds against H2O2 insult in neuroblastoma cells as previously described (Leiros, M., Alonso, E., Sanchez, J. A., Rateb, M. E., Ebel, R., Houssen, W. E., Jaspars, M., Alfonso, A. and Botana, L. M. ACS Chem. Neurosci., 2014, S, 71-80). Human T lymphocytes were cultured in 24 well plates at the concentration of 2.5×10^6 cells/mL and exposed to different compound concentrations (0.01, 0.1, 1 and 10 μM) added to the culture medium. Human T cells were maintained in the presence of the pure compound at 37° C. in humidified 5% CO2/95% air atmosphere for 48 h.
(§2) Saponin was used as cellular death control and its absorbance was subtracted from the other data. After the incubation period with compounds, assay was performed. First cells were centrifuged (1500 rpm, 5 min, 4° C.). The pellets were resuspended in saline solution with MTT (250 μg/mL) and then incubated at 37° C. during 30 min. After washing off excess MTT twice with saline solution, cells were disaggregated with H2O and sonicated for 1 min and the absorbance of the colored formazan salt was measured at 595 nm in a spectrophotometer plate reader. All experiments were performed three times.
In general terms: Tetrazolium assays rely on reduction of a dye to a coloured formazan, in cell work by metabolically active cells.

A short description of series [2]: Viability of human T lymphocytes (MTT assay, 48 h). The series is classed as cell-based. Particulars: human; 0.1 μM, 48 hours; read-out: decrease in cell viability.
Description: as §1, §2

Some results are limits rather than exact numbers.

Chain of CypD (P30405 30-207): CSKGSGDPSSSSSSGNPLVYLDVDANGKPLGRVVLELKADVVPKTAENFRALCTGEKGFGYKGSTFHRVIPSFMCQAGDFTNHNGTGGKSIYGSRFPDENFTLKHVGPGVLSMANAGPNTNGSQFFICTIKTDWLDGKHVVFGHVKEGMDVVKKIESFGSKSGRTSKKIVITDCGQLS
T1 sequence (P62937 whole entry): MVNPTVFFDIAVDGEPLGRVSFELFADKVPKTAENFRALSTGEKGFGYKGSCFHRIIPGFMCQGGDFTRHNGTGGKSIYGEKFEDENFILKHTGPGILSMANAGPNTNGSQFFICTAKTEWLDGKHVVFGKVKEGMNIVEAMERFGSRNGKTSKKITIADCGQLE

Take `CC(=O)O[C@H]1O[C@@H](OC(C)=O)[C@@H]2CC[C@](O)(C3(C)CCCC(C)(C)C3)C[C@H]12` (stereo partly drawn) [Compound 22, (1S,3R,3aS,5R,7aR)-5-hydroxy-5-(1,3,3-trimethylcyclohexyl)octahydroisobenzo-furan-1,3-diyl diacetate]: the “neuroprotective / antioxidant effects based on all five assays” value in the series with SHSY5Y cells is “displayed significant neuroprotective effects”. For the same molecule, the ROS levels entry in the series with SH-SY5Y cells is listed as “diminishing ROS at two or three concentrations”. The “selectivity for CypA” value at CypA came out at 4 fold. Besides, the mPTP opening entry in series [1] is given as “prevent TBHP-induced opening”. This molecule also registered a half-inhibitory concentration (IC50) at CypD of less than 500 nM.

For `CC(=O)O[C@@H]1OC[C@H]2C=C(C3(C)CCCCC3)CC[C@@H]12` [Compound 27a, (1S,3aS,7aR)-5-(1-methylcyclohexyl)-1,3,3a,6,7,7a-hexahydroisobenzofuran-1-yl acetate], the “neuroprotective / antioxidant effects based on all five assays” value in the series with SHSY5Y cells is listed as “displayed significant neuroprotective effects”. In addition, the ROS levels result in the series on SH-SY5Y cells is recorded as “diminishing ROS at two or three concentrations”. The mPTP opening result in series [1] is listed as “prevent TBHP-induced opening”. Besides, at CypD, the half-maximal inhibitory concentration (IC50) is less than 500 nM and the “selectivity for CypD over CypA” value is listed as “about 3 fold”. Besides, on CypD (listed as (−)-27a), the “selectivity for CypD over CypA” value is roughly 3 fold.

For the molecule `CC(=O)O[C@H]1OC[C@@H]2C=C([C@@]3(C)CCCC(C)(C)C3)CC[C@H]12` [Compound 29a, (1R,3aR,7aS)-5-(1,3,3-trimethylcyclohexyl)-1,3,3a,6,7,7a-hexahydroisobenzofuran-1-yl acetate], the “neuroprotective / antioxidant effects based on all five assays” value with SHSY5Y cells is recorded as “displayed significant neuroprotective effects”. The “impact on T-cell viability” value with human T lymphocytes is given as “relatively non-toxic”. Besides, the cytotoxicity at 48 h, 0.1 μM in series [2] was 15 to 25%. Moreover, the mPTP opening entry in series [1] is listed as “prevent TBHP-induced opening”. This molecule also returned an IC50 at CypD of less than 500 nM.
